Reference: patent publication US11078191B2, “1-(4-amino-5-bromo-6-(1H-pyrazol-1-yl)pyrimidin-2-yl)-1H-pyrazol-4-ol and use thereof in the treatment of cancer” (Novartis AG, priority 2017, dated 2021)
Read-outs that look alike come from different tables or passages of the source. Marks after values point to notes of the source that are not given here.

Legend:
[1] = male, Sprague Dawley, rat, microsomes
Procedure: (§1) The final organic content in liver microsomal incubations was 0.5%.
Liver microsomal protein (25 uL for 0.5 mg/mL; 15 uL for 0.3 mg/mL), NADPH (100 uL, 2 mM final concentration) and phosphate buffer (870 uL for 0.5 mg/mL; 880 uL for 0.3 mg/mL) were incubated in a microfuge tube in an orbital shaker incubator for 10 min maintained at 37° C. Reactions were initiated by spiking 5 uL of 2 mM and 0.2 mM 5-bromo-2,6-di(1H-pyrazol-1-yl)pyrimindin-4-amine([…]; […]; 0.5% final DMSO concentration) and samples incubated at 37° C. Aliquots (200 uL) were withdrawn from the reaction tube at 0, 60 and 120 minutes and the reaction was quenched by addition of 100 uL acetonitrile. Reactions were performed in duplicates. The quenched samples were centrifuged at 14000 rpm (approximately 21000 g) for 10 minutes(Eppendorf Centrifuge 5810 R) and supernatant was analyzed by LCMS/MS.
(§2) Control incubations (no NADPH added) and blank incubations (no test item added) were performed in singlet for each species. These samples were withdrawn at 0 and 120 min and quenched using acetonitrile. The supernatant was analyzed for any non microsomal degradation and matrix interference. […] Reaction and control experiments were performed in singlet.

[2] = Procedure: as §1
Liver microsomal protein (25 uL for 0.5 mg/mL; 15 uL for 0.3 mg/mL), NADPH (100 uL, 2 mM final concentration) and phosphate buffer (870 uL for 0.5 mg/mL; 880 uL for 0.3 mg/mL) were incubated in a microfuge tube in an orbital shaker incubator for 10 min maintained at 37° C. Reactions were initiated by spiking 5 uL of 2 mM and 0.2 mM 5-bromo-2,6-di(1H-pyrazol-1-yl)pyrimindin-4-amine(10 uM final concentrations for 0.5 mg/mL protein; 1 uM final concentration for 0.3 mg/mL protein; 0.5% final DMSO concentration) and samples incubated at 37° C. Aliquots (200 uL) were withdrawn from the reaction tube at 0, 60 and 120 minutes and the reaction was quenched by addition of 100 uL acetonitrile. Reactions were performed in duplicates. The quenched samples were centrifuged at 14000 rpm (approximately 21000 g) for 10 minutes(Eppendorf Centrifuge 5810 R) and supernatant was analyzed by LCMS/MS.
as §2

[3] = type: in vitro ADME; conditions: for Percentage area ratio with respect to parent (10 uM): 0 min
Procedure: • ACN: acetonitrile • CC: calibration curve • IS: internal standard • DMSO: dimethylsulfoxide • MRM: multiple reaction monitoring • […]: nicotinamide adenine dinucleotide phosphate (reduced) • Rpm: revolution per minute Liver Microsomes • Rat liver microsomes (male, pooled, Sprague Dawley) • Source: XenoTech, LLC (Kansas, USA) • Protein content: 20 mg/mL • Catalogue number: R I 000, Lot number: 0710623 • Dog liver microsomes (male, pooled, Beagle) • Source: XenoTech, LLC (Kansas, USA) • Protein content: 20 mg|mL • Catalogue number: D I 000, Lot number: 0810143 • Human liver microsomes (mixed gender, pooled) • Source: XenoTech, LLC (Kansas, USA) • Protein content: 20 mg|mL • Catalogue number: H061 0, Lot number: 101042 Stock Solutions and Reagents Test Item
(§3) Reactions were performed in duplicates.
(§4) Reaction and control experiments were performed in singlet.
Samples were processed using protein precipitation method and then analyzed by employing linear gradient with a run time of 28 min in HPLC coupled with tandem mass spectrometry (API 4000 mass spectrometer). Each sample was injected and scanned separately for Q1 (MH+/MH−) and MS/MS.
The different possible metabolite peaks were identified in Q1 scan after assessing for matrix interference using test item free blank samples, and were confirmed from the fragmentation pattern (MSIMS scan).
An alternate analytical method was also developed to increase the retention times and to assess other metabolites apart from the identified M-1 metabolite. Aqueous solutions of 1-(6-amino-5-bromo-2-(1H-pyrazol-1-yl)pyrimidin-4-yl)-1H-pyrazol-4-ol and 1-(4-amino-5-bromo-6-(1H-pyrazol-1-yl)pyrimidin-2-yl)-1H-pyrazol-4-ol (1 uM) were co-chromatographed with the in vitro incubated samples employing modified analytical method to confirm the identity.

[4] = Mass balance determination in human liver microsomes (MRM analysis); type: in vitro ADME
Procedure: as §3
An aliquot (25 uL) of these samples were further diluted with 100 uL of internal standard (Haloperidol, 1 ug|mL in acetonitrile).
The incubation samples were also prepared similar to that of the calibration standards by adding 25 uL of the quenched sample with 100 uL of internal standard.

[5] = Liver microsomal incubations compared across tested species; type: in vitro ADME, rat, dog, human
Procedure: as §3, §4

[6] = molecular target: T1, human adenosine A2A receptor (Homo sapiens, UniProt P29274); test: In vitro hA2A radioligand binding assay; conditions: [3H]-ZM241385 competition, HEK-293 membranes; Ki from IC50 by Cheng-Prusoff
T1 construct: purchased Perkin Elmer RBHA2AM400UA; host or cells: HEK-293 cells stably expressing the receptor (membrane preparation)
T1 sequence (P29274 whole entry): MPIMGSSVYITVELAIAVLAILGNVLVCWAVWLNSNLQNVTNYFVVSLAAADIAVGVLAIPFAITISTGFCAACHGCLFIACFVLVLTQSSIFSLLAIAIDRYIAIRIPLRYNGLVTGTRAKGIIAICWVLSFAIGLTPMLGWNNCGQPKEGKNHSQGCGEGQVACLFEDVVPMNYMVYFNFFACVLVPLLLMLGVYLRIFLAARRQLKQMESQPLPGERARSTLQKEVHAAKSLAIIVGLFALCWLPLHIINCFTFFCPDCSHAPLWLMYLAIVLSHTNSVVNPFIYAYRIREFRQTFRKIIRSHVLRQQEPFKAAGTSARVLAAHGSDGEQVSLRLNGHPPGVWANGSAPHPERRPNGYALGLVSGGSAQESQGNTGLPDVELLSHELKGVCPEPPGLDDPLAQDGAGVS

[7] = human liver microsomes, parent 10 uM, 0 min, Set-1
[8] = human liver microsomes, parent 10 uM, 30 min, Set-1
[9] = human liver microsomes, parent 10 uM, 60 min, Set-1
[10] = human liver microsomes, parent 10 uM, 0 min, Set-2
[11] = human liver microsomes, parent 10 uM, 30 min, Set-2
[12] = human liver microsomes, parent 10 uM, 60 min, Set-2

Compound: O=C(O)Cc1ccccc1Nc1c(Cl)cccc1Cl [Diclofenac]
- % remaining ([1]; 0 h, 0.5 uM): 100%
- % remaining ([1]; 1 h, 0.5 uM): 12%
- % remaining ([2]; both, human, microsomes, 0 h, 0.5 uM): 100%
- % remaining ([2]; both, human, microsomes, 1 h, 0.5 uM): 100%

Compound: Nc1nc(-n2cccn2)nc(-n2cccn2)c1Br [Parent, 5-bromo-2,6-di(1H-pyrazol-1-yl)pyrimindin-4-amine]
- Percentage area ratio with respect to parent (10 uM) ([3]; both, human): 100%
- Percentage area ratio with respect to parent (10 uM) ([3]; male, Beagle, dog): 100%
- Percentage area ratio with respect to parent (10 uM) ([3]; male, Sprague Dawley, rat): 100%
- % metabolism of parent at 120 min ([3]; male, Sprague Dawley, rat, 120 min, 10 uM): 0%
- Concentration of Analyte metabolized ([3]; male, Sprague Dawley, rat, microsomes, 2 h, 10 uM): 0 nM
- % remaining ([1]; 0 h, 1 uM): 100%
- % metabolism of parent at 120 min ([2]; both, human, 1 uM): 76%
- % remaining ([2]; both, human, microsomes, 0 h, 1 uM): 100%
- % metabolism of parent at 120 min ([2]; human, 1 uM): 78%
- % metabolism of parent at 120 min ([2]; male, Beagle, dog, 1 uM): 83%
- % remaining ([2]; male, Beagle, dog, microsomes, 0 h, 1 uM): 100%
- Concentration of Analyte metabolized ([2]; male, Beagle, dog, microsomes, 2 h, 1 uM): 830 nM
- % parent Remaining [4, 7]: 100%
- Parent Concentration [4, 7]: 11.78^a uM
- % parent Remaining [4, 8]: 96.26%
- Mass balance [4, 8]: 107.22%
- Parent Concentration [4, 8]: 11.34^a uM
- % parent Remaining [4, 9]: 88%
- Mass balance [4, 9]: 107.81%
- Parent Concentration [4, 9]: 10.47^a uM
- Parent Concentration ([4]; human, 0 min, 10 uM): 11.54^a uM
- Mass balance ([4]; human, 30 min, 10 uM): 95.41%
- Parent Concentration ([4]; human, 30 min, 10 uM): 10.09^a uM
- Mass balance ([4]; human, 60 min, 10 uM): 94.63%
- Parent Concentration ([4]; human, 60 min, 10 uM): 9.18 µM
- % parent Remaining ([4]; human, microsomes, 0 h, 10 uM): 100%
- % parent Remaining ([4]; human, microsomes, 0.5 h, 10 uM): 87.44%
- % parent Remaining ([4]; human, microsomes, 1 h, 10 uM): 79.55%
- mass balance for the metabolism in human liver microsomes ([4]; text summary of Table 7): 95 to 107%
- relative metabolism across tested species ([5]; 1 uM, 0.3 mg/mL microsomal protein, DLM, HLM, RLM = dog, human, rat liver microsomes): DLM>HLM>RLM
- stability in control incubations (no NADPH added) ([5]; liver microsomes, indicating no non-CYP mediated metabolism): stable up to 120 min

Compound: Nc1nc(-n2cc(O)cn2)nc(-n2cccn2)c1Br [Example 1, 1-(4-amino-5-bromo-6-(1H-pyrazol-1-yl)pyrimidin-2-yl)-1H-pyrazol-4-ol]
- Ki [6]: 50 nM
- Percentage area ratio with respect to parent (10 uM) ([3]; male, Beagle, dog): 0.01%
- percentage of M-I metabolite in human liver microsomes ([4]; after 60 minutes of incubation with parent, % of the parent): 15-20%
- % M-I detected [4, 7]: 0%
- M-I Concentration [4, 7]: 0 µM
- % M-I detected [4, 10]: 0%
- M-I Concentration [4, 10]: 0 µM
- % M-I detected [4, 8]: 10.95%
- M-I Concentration [4, 8]: 1.29 µM
- % M-I detected [4, 11]: 7.97%
- M-I Concentration [4, 11]: 0.92 µM
- % M-I detected [4, 9]: 18.93%
- M-I Concentration [4, 9]: 2.23 µM
- % M-I detected [4, 12]: 15.08%
- M-I Concentration [4, 12]: 1.74 µM
- percentage of metabolite with respect to parent ([5]; rat, dog and human liver microsomes, assumes equal ionization efficiency): uniformly low
